Values after ≈ are worked out from the molar mass of the structure shown. Active and inactive are the calls of the source. No cut-off for these calls is given here.
Key:
[1] = tested on: Staphylococcus epidermidis; test: Antibacterial activity against biofilm producer Staphylococcus epidermidis ATCC 35984 assessed as inhibition of bacterial growth incubated for 18 hrs by broth microdilution method; assay type: functional
Pseudomonas aeruginosa = test: Antibacterial activity against Pseudomonas aeruginosa ATCC 27853 assessed as inhibition of bacterial growth incubated for 18 hrs by broth microdilution method; assay type: functional
Enterococcus faecium = test: Antibacterial activity against vancomycin-resistant Enterococcus faecium assessed as inhibition of bacterial growth incubated for 18 hrs by broth microdilution method; assay type: functional
[2] = tested on: Staphylococcus epidermidis; test: Antibacterial activity against linezolid-resistant Staphylococcus epidermidis NIL 4399/19 assessed as inhibition of bacterial growth incubated for 18 hrs by broth microdilution method; assay type: functional
[3] = Cytotoxicity against human MRC5 cells assessed as reduction in cell viability incubated for 24 hrs by MTT assay; assay type: toxicity, cell-based
[4] = Cytotoxicity against human BJ cells assessed as reduction in cell viability incubated for 24 hrs by MTT assay; assay type: toxicity, cell-based
[5] = tested on: Staphylococcus epidermidis; test: Antibacterial activity against methicillin-susceptible Staphylococcus epidermidis ATCC 12228 assessed as inhibition of bacterial growth incubated for 18 hrs by broth microdilution method; assay type: functional
[6] = Induction of hemolysis in horse RBC at 200 uM incubated for 1 hr; assay type: toxicity, cell-based, Equus caballus, Erythrocyte; conditions: horse red blood cells (erythrocytes), read-out: Activity
Staphylococcus aureus [7] = test: Antibacterial activity against vancomycin-intermediate Staphylococcus aureus ATCC 700699 assessed as inhibition of bacterial growth incubated for 18 hrs by broth microdilution method; assay type: functional
Staphylococcus aureus [8] = test: Antibacterial activity against methicillin-susceptible Staphylococcus aureus ATCC 25923 assessed as inhibition of bacterial growth incubated for 18 hrs by broth microdilution method; assay type: functional
Staphylococcus aureus [9] = test: Antibacterial activity against biofilm producer Staphylococcus aureus RN450 assessed as inhibition of bacterial growth incubated for 18 hrs by broth microdilution method; assay type: functional
Enterococcus faecalis = test: Antibacterial activity against Enterococcus faecalis ATCC 29212 assessed as inhibition of bacterial growth incubated for 18 hrs by broth microdilution method; assay type: functional
Streptococcus pneumoniae = test: Antibacterial activity against Streptococcus pneumoniae ATCC 49619 assessed as inhibition of bacterial growth incubated for 18 hrs by broth microdilution method; assay type: functional
Escherichia coli = test: Antibacterial activity against Escherichia coli ATCC 25922 assessed as inhibition of bacterial growth incubated for 18 hrs by broth microdilution method; assay type: functional
Klebsiella pneumoniae = test: Antibacterial activity against Klebsiella pneumoniae ATCC 700603 assessed as inhibition of bacterial growth incubated for 18 hrs by broth microdilution method; assay type: functional
Staphylococcus aureus [10] = test: Antibacterial activity against methicillin-resistant Staphylococcus aureus clinical strain 19449 assessed as inhibition of bacterial growth incubated for 18 hrs by broth microdilution method; assay type: functional

| SMILES | MIC [1] [µg/mL] | Activity (Pseudomonas aeruginosa) | MIC (Enterococcus faecium) [µg/mL] | MIC [2] [µg/mL] | IC50 at 24 h [3] [µg/mL] | IC50 at 24 h [4] [µg/mL] | MIC [5] [µg/mL] | hemolysis at 1 h, 200 µM [6] [%] | MIC (Staphylococcus aureus [7]) [µg/mL] | MIC (Staphylococcus aureus [8]) [µg/mL] | MIC (Staphylococcus aureus [9]) [µg/mL] | MIC (Enterococcus faecalis) [µg/mL] | MIC (Streptococcus pneumoniae) [µg/mL] | Activity (Escherichia coli) | Activity (Klebsiella pneumoniae) | MIC (Staphylococcus aureus [10]) [µg/mL] |
| --- | --- | --- | --- | --- | --- | --- | --- | --- | --- | --- | --- | --- | --- | --- | --- | --- |
| O=C(Nc1cccc(Cl)c1)N[C@H]1CCN(CCC(Oc2ccc(Cl)cc2)c2ccccc2)C1 (some centres undefined) | 3.12 (≈ 6.45 µM) | inactive | 3.12 (≈ 6.45 µM) | 6.25 (≈ 12.9 µM) | 3.12 (≈ 6.45 µM) | 6.25 (≈ 12.9 µM) | 1.56 (≈ 3.22 µM) | 11 | 1.56 (≈ 3.22 µM) | 6.25 (≈ 12.9 µM) | 3.12 (≈ 6.45 µM) | 3.12 (≈ 6.45 µM) | 6.25 (≈ 12.9 µM) | inactive | inactive | 6.25 (≈ 12.9 µM) |
| O=C(Nc1cccc(Cl)c1)N1CCN(CCC(Oc2ccc(C(F)(F)F)cc2)c2ccccc2)CC1 (racemic) | > 12.5 | inactive | – | > 12.5 | – | – | > 12.5 | – | > 12.5 | > 12.5 | > 12.5 | – | > 12.5 | inactive | inactive | > 12.5 |
| O=C(Nc1ccccc1)NC1CCN(CCC(Oc2ccc(C(F)(F)F)cc2)c2ccccc2)CC1 (racemic) | 12.5 (≈ 25.1 µM) | inactive | – | > 12.5 | – | – | > 12.5 | – | > 12.5 | > 12.5 | > 12.5 | – | > 12.5 | inactive | inactive | > 12.5 |
| COc1cccc(OC(CCN2CCC(NC(=O)Nc3cccc(Cl)c3)CC2)c2ccccc2)c1 (racemic) | 6.25 (≈ 12.7 µM) | inactive | – | 6.25 (≈ 12.7 µM) | – | – | 6.25 (≈ 12.7 µM) | – | 12.5 (≈ 25.3 µM) | 12.5 (≈ 25.3 µM) | 3.12 (≈ 6.33 µM) | – | 12.5 (≈ 25.3 µM) | inactive | inactive | 12.5 (≈ 25.3 µM) |
| O=C(Nc1cccc(F)c1)NC1CCN(CCC(Oc2ccc(C(F)(F)F)cc2)c2ccccc2)CC1 (centres undefined) | 3.12 (≈ 6.06 µM) | inactive | 0.78 (≈ 1.51 µM) | 3.12 (≈ 6.06 µM) | – | – | 3.12 (≈ 6.06 µM) | – | 6.25 (≈ 12.1 µM) | 6.25 (≈ 12.1 µM) | 1.56 (≈ 3.03 µM) | 3.12 (≈ 6.06 µM) | 6.25 (≈ 12.1 µM) | inactive | inactive | 3.12 (≈ 6.06 µM) |
| O=C(NCC1CCN(CCC(Oc2cccc(Cl)c2)c2ccccc2)CC1)Nc1cccc(Cl)c1 (racemic) | 3.12 (≈ 6.1 µM) | inactive | 1.56 (≈ 3.04 µM) | 6.25 (≈ 12.2 µM) | 3.12 (≈ 6.1 µM) | 6.25 (≈ 12.2 µM) | 1.56 (≈ 3.04 µM) | 6 | 3.12 (≈ 6.1 µM) | 6.25 (≈ 12.2 µM) | 3.12 (≈ 6.1 µM) | 3.12 (≈ 6.1 µM) | 6.25 (≈ 12.2 µM) | inactive | inactive | 6.25 (≈ 12.2 µM) |
| O=C(Nc1ccc(F)cc1)NC1CCN(CCC(Oc2ccc(C(F)(F)F)cc2)c2ccccc2)CC1 (racemic) | 3.12 (≈ 6.06 µM) | inactive | 3.12 (≈ 6.06 µM) | 3.12 (≈ 6.06 µM) | – | – | 6.25 (≈ 12.1 µM) | – | 6.25 (≈ 12.1 µM) | 6.25 (≈ 12.1 µM) | 3.12 (≈ 6.06 µM) | 6.25 (≈ 12.1 µM) | > 12.5 | inactive | inactive | 3.12 (≈ 6.06 µM) |
| COc1ccc(OC(CCN2CCC(NC(=O)Nc3cccc(Cl)c3)CC2)c2ccccc2)cc1 (racemic) | 6.25 (≈ 12.7 µM) | inactive | – | 6.25 (≈ 12.7 µM) | – | – | 12.5 (≈ 25.3 µM) | – | 6.25 (≈ 12.7 µM) | 12.5 (≈ 25.3 µM) | 6.25 (≈ 12.7 µM) | – | > 12.5 | inactive | inactive | 12.5 (≈ 25.3 µM) |
| O=C(Nc1ccc(Cl)cc1)NC1CCN(CCC(Oc2ccc(C(F)(F)F)cc2)c2ccccc2)CC1 (racemic) | 3.12 (≈ 5.87 µM) | inactive | – | > 12.5 | – | – | > 12.5 | – | > 12.5 | > 12.5 | 1.56 (≈ 2.93 µM) | – | 6.25 (≈ 11.7 µM) | inactive | inactive | 6.25 (≈ 11.7 µM) |
| O=C(Nc1cccc(Cl)c1)N[C@H]1CCN(CCC(Oc2ccc(C(F)(F)F)cc2)c2ccccc2)C1 (some centres undefined) | 3.12 (≈ 6.03 µM) | inactive | 0.78 (≈ 1.51 µM) | 1.56 (≈ 3.01 µM) | 3.12 (≈ 6.03 µM) | 6.25 (≈ 12.1 µM) | 1.56 (≈ 3.01 µM) | 10 | 1.56 (≈ 3.01 µM) | 3.12 (≈ 6.03 µM) | 1.56 (≈ 3.01 µM) | 3.12 (≈ 6.03 µM) | 6.25 (≈ 12.1 µM) | inactive | inactive | 3.12 (≈ 6.03 µM) |

Reference: ChEMBL document CHEMBL5346933, “Design and synthesis of novel arylurea derivatives of aryloxy(1-phenylpropyl) alicyclic diamines with antimicrobial activity against multidrug-resistant Gram-positive bacteria” (Eur J Med Chem, 2023)
